Experimental findings from US8084399B2, “Process for screening of a binding amphiphilic peptides specific for hairpin RNA” (priority 2009, dated 2011) are described below.

Several values for one entry are separate records, joined by “and”; a condition that tells them apart may be missing. Equal entries are not always repeated. Where no end group is shown, it is not given here. [ ]: non-standard residue; d: D form. Orn = NCCC[C@H](N)C(=O)O; Dap = NC[C@H](N)C(=O)O

One series concerns the target RRE hairpin RNA. In words: Fluorescence anisotropy competition with Rev-N-rhodamine probe, binding to RRE hairpin RNA. To be noted: 20° C., pH 7.4, read-out: Dissociation constant, RRE. More on the design: species or system HIV. As to the method:
(§1) Binding force to each target hairpin RNA (IRES, RRE, TAR and 16S A-site) was measured by fluorescence polarization using alanine scanned peptide library (1b-1h).
(§2) Particularly, […] of each target RNA was prepared at the concentration of 10 mM, which stood at 65° C. for 10 minutes and then cooled down slowly at room temperature, leading to folding. The amphiphilic peptide was prepared respectively at the concentration of […], which were maintained at 0° C. As a probe, rev peptide labeled with rhodamine (Rev-N-rhodamine) emitting […] fluorescence was prepared at the concentration of 10 mM. Buffer was composed of 140 mM NaCl, 5 mM KCl, 1 mM MgCl2, and 20 mM HEPES (N-2-Hydroxyethylpiperazine-N′-2-Ethanesulfonic Acid, pH 7.4). Fluorescence Anisotropy was measured using AMINCO-Bowman Series Luminescence Spectrometer at 20° C. Ten nM of the probe was added in […] of buffer, to which target RNA was added to induce interaction between the probe and the target RNA. At that time, anisotropy value increased. Then, the synthesized peptide competing with the probe for binding site was added thereto with increasing the concentration slowly. Changes of fluorescence polarization were measured until fluorescence polarization reached as low as the beginning. Considering the concentration and amount of the peptide added, binding force to target RNA was calculated. That is, the binding strength between target RNA and peptide was determined according to the following KaleidaGraph. [Peptide]=Kd(Amax−A)/[Kd(A−A0)+1]×[RNA]−Kd(A−A0)^2[Probe]0/(Amax−A)(Amax−A0)
(§3) Herein, [Peptide] indicates the concentration of peptide, [RNA] indicates the concentration of target RNA, and [Probe]0 indicates the concentration of probe. A is the value of fluorescence anisotropy of sample, Amax is the value of totally bound tracer, and A0 is the value of totally free tracer.
A general note: Fluorescence polarisation rises when a labelled molecule tumbles more slowly, as on binding a larger partner.

A further series deals with TAR hairpin RNA. In words: Fluorescence anisotropy competition with Rev-N-rhodamine probe, binding to TAR hairpin RNA. More on the design: species or system HIV. To be noted: fluorescence anisotropy, 20° C., pH 7.4; read-out: Dissociation constant, TAR. As to the method: as §1, §2, §3
The next series deals with 16S ribosomal RNA A-site. In words: Fluorescence anisotropy competition with Rev-N-rhodamine probe, binding to 16S A-site. To be noted: 20° C., pH 7.4, read-out: Dissociation constant, 16S A-site. As to the method: as §1, §2, §3
The next series has as its system IRES domain IV hairpin. The series can be described thus: Fluorescence anisotropy competition with Rev-N-rhodamine probe, binding to IRES hairpin. Also noted: species or system HCV. The note with it: for differentiation coefficient (IRES): (mean Kd to other hairpin RNA)/(Kd to one hairpin RNA); for Kd: fluorescence anisotropy, 20° C., pH 7.4, read-out: Dissociation constant, IRES. The procedure:
as §1, §2, §3

Series [1] can be described thus: Circular dichroism (CD), percentage of alpha-helix. The format is physicochemical. To be noted: CD at 20° C., condition not given; for Alpha-helical rate (%), second value of pair: value after the slash; for Alpha-helical rate (%), first value of pair: value before the slash. The procedure: To investigate alpha-helix of the amphiphilic peptide (1a-1h), circular dichroism (CD) was performed. Particularly, CD was measured at 20° C. by using JASCO model J715 spectropolarimeter. Scanning was performed at 190-250 nm three times (bandwidth: 1 nm, datapitch: 0.5 nm, speed: 100 nm/min), which were averaged to obtain CD data. Spectrum was corrected by measuring background spectrum. CD signal was recorded after modulating thereof with mean residue ellipticity [Q]. Percentage (%) of alpha-helix(fn) was calculated by the following formula. [Q]=Qobs[MRW/(10lc)]
MRW=mean residue weight (dividing molecular weight by the number of peptide bond, l=pathway length (cm), c=concentration (mg/mL). fn=([Q]222−[Q]coil)/([Q]helix−[Q]coil) [Q]helix=−40,000[…]+100t [Q]coil=640−45t
[Q]222=mean residue ellipticity at 222 nm (deg cm2 mol-1), [Q]helix=ellipticity of peptide having complete helical structure, [Q]coil=ellipticity of peptide having complete random coil structure, n=number of amino acid, t=° C.
(In general: Circular dichroism is widely used to follow secondary structure.)

As for “LKKLLKLLKKLLKLKG [1a, original amphiphilic 16-mer peptide]”, the Kd turned out to be 0.022 µM on RRE hairpin RNA, 0.066 µM at TAR hairpin RNA, 0.1 µM on 16S ribosomal RNA A-site and 0.045 µM at IRES domain IV hairpin. Also, the “differentiation coefficient (IRES)” value in the series on IRES domain IV hairpin was 1.4. The “Alpha-helical rate (%), second value of pair” value in series [1] worked out at 57%. The “Alpha-helical rate (%), first value of pair” value in series [1] is on record as 26%.

For “LKKLLKLLKKLLOrnLAG (LKKLLKLLKKLL[Orn]LAG-NH2; N-terminus assumed; SMILES CC(C)C[C@H](NC(=O)[C@H](CCCN)NC(=O)[C@H](CC(C)C)NC(=O)[C@H](CC(C)C)NC(=O)[C@H](CCCCN)NC(=O)[C@H](CCCCN)NC(=O)[C@H](CC(C)C)NC(=O)[C@H](CC(C)C)NC(=O)[C@H](CCCCN)NC(=O)[C@H](CC(C)C)NC(=O)[C@H](CC(C)C)NC(=O)[C@H](CCCCN)NC(=O)[C@H](CCCCN)NC(=O)[C@@H](N)CC(C)C)C(=O)N[C@@H](C)C(=O)NCC(N)=O) [2g, second generation peptide, hydrophilic face modified]”, the Kd on RRE hairpin RNA is 0.011 µM; on TAR hairpin RNA, 0.009 µM; on 16S ribosomal RNA A-site it was 0.023 µM; on IRES domain IV hairpin, 0.0044 µM. The “differentiation coefficient (IRES)” value in the series on IRES domain IV hairpin came to 3.3. The “Alpha-helical rate (%), second value of pair” value in series [1] is given as 53%. The “Alpha-helical rate (%), first value of pair” value in series [1] stood at 36%.

In the case of “LKKLLKLLKKLWKLAG [2t, tryptophan scanned second generation peptide]”, the Kd on RRE hairpin RNA is 0.013 µM; on TAR hairpin RNA it was 0.01 µM; on 16S ribosomal RNA A-site it was 0.017 µM; at IRES domain IV hairpin it was 0.0023 µM. In the series on IRES domain IV hairpin, the “differentiation coefficient (IRES)” value is recorded as 5.9. The “Alpha-helical rate (%), second value of pair” value in series [1] is on record as 58%. In addition, in series [1], the “Alpha-helical rate (%), first value of pair” value was found to be 12%.

Turning to “LKKLLKLLKKWLKLAG [2s, tryptophan scanned second generation peptide]”, the Kd on RRE hairpin RNA was found to be 0.0095 µM; on TAR hairpin RNA it was 0.043 µM; on 16S ribosomal RNA A-site, 0.024 µM; on IRES domain IV hairpin it was 0.0044 µM. Further, the “differentiation coefficient (IRES)” value in the series with IRES domain IV hairpin worked out at 5.8. In series [1], the “Alpha-helical rate (%), second value of pair” value is recorded as 60%. Further, the “Alpha-helical rate (%), first value of pair” value in series [1] is 27%.

Turning to “LKKLLKLLOrnKLLDapLAG (LKKLLKLL[Orn]KLL[Dap]LAG-NH2; N-terminus assumed; SMILES CC(C)C[C@H](NC(=O)[C@H](CN)NC(=O)[C@H](CC(C)C)NC(=O)[C@H](CC(C)C)NC(=O)[C@H](CCCCN)NC(=O)[C@H](CCCN)NC(=O)[C@H](CC(C)C)NC(=O)[C@H](CC(C)C)NC(=O)[C@H](CCCCN)NC(=O)[C@H](CC(C)C)NC(=O)[C@H](CC(C)C)NC(=O)[C@H](CCCCN)NC(=O)[C@H](CCCCN)NC(=O)[C@@H](N)CC(C)C)C(=O)N[C@@H](C)C(=O)NCC(N)=O) [peptide 2k, second generation peptide, hydrophilic face modified]”, the Kd on RRE hairpin RNA stood at 0.02 µM; on TAR hairpin RNA it was 0.013 µM; at 16S ribosomal RNA A-site, 0.017 µM; at IRES domain IV hairpin, 0.00068 µM. The “differentiation coefficient (IRES)” value with IRES domain IV hairpin is 24 and 25. Also, the “Alpha-helical rate (%), second value of pair” value in series [1] turned out to be 61%. Also, in series [1], the “Alpha-helical rate (%), first value of pair” value is 48%.

As for “LKKLLKLLOrnKLLDapWAG (LKKLLKLL[Orn]KLL[Dap]WAG-NH2; N-terminus assumed; SMILES CC(C)C[C@H](NC(=O)[C@H](CC(C)C)NC(=O)[C@H](CCCCN)NC(=O)[C@H](CCCN)NC(=O)[C@H](CC(C)C)NC(=O)[C@H](CC(C)C)NC(=O)[C@H](CCCCN)NC(=O)[C@H](CC(C)C)NC(=O)[C@H](CC(C)C)NC(=O)[C@H](CCCCN)NC(=O)[C@H](CCCCN)NC(=O)[C@@H](N)CC(C)C)C(=O)N[C@@H](CN)C(=O)N[C@@H](Cc1c[nH]c2ccccc12)C(=O)N[C@@H](C)C(=O)NCC(N)=O) [peptide 3h, third generation peptide, both faces modified]”, the Kd was 0.028 µM on RRE hairpin RNA, 0.015 µM at TAR hairpin RNA, 0.019 µM at 16S ribosomal RNA A-site and 0.013 µM at IRES domain IV hairpin. The “differentiation coefficient (IRES)” value in the series on IRES domain IV hairpin was determined as 1.6. In addition, in series [1], the “Alpha-helical rate (%), second value of pair” value is recorded as 56%. Also, the “Alpha-helical rate (%), first value of pair” value in series [1] amounted to 12%.

As for “LKKLLKLLOrnKLLKLAG (LKKLLKLL[Orn]KLLKLAG-NH2; N-terminus assumed; SMILES CC(C)C[C@H](NC(=O)[C@H](CCCCN)NC(=O)[C@H](CC(C)C)NC(=O)[C@H](CC(C)C)NC(=O)[C@H](CCCCN)NC(=O)[C@H](CCCN)NC(=O)[C@H](CC(C)C)NC(=O)[C@H](CC(C)C)NC(=O)[C@H](CCCCN)NC(=O)[C@H](CC(C)C)NC(=O)[C@H](CC(C)C)NC(=O)[C@H](CCCCN)NC(=O)[C@H](CCCCN)NC(=O)[C@@H](N)CC(C)C)C(=O)N[C@@H](C)C(=O)NCC(N)=O) [2d, second generation peptide, hydrophilic face modified]”, the Kd amounted to 0.0076 µM on RRE hairpin RNA, 0.0098 µM at TAR hairpin RNA, 0.018 µM at 16S ribosomal RNA A-site and 0.0013 µM on IRES domain IV hairpin. For the same substance, in the series on IRES domain IV hairpin, the “differentiation coefficient (IRES)” value stood at 8.7. Besides, the “Alpha-helical rate (%), second value of pair” value in series [1] came to 57%. The “Alpha-helical rate (%), first value of pair” value in series [1] is 28%.

With “LKKLLKLLOrnKLLKWAG (LKKLLKLL[Orn]KLLKWAG-NH2; N-terminus assumed; SMILES CC(C)C[C@H](NC(=O)[C@H](CC(C)C)NC(=O)[C@H](CCCCN)NC(=O)[C@H](CCCN)NC(=O)[C@H](CC(C)C)NC(=O)[C@H](CC(C)C)NC(=O)[C@H](CCCCN)NC(=O)[C@H](CC(C)C)NC(=O)[C@H](CC(C)C)NC(=O)[C@H](CCCCN)NC(=O)[C@H](CCCCN)NC(=O)[C@@H](N)CC(C)C)C(=O)N[C@@H](CCCCN)C(=O)N[C@@H](Cc1c[nH]c2ccccc12)C(=O)N[C@@H](C)C(=O)NCC(N)=O) [3f, third generation peptide, both faces modified]”, the Kd stood at 0.0036 µM at RRE hairpin RNA, 0.0047 µM at TAR hairpin RNA, 0.01 µM at 16S ribosomal RNA A-site and 0.0061 µM at IRES domain IV hairpin. In addition, in the series with IRES domain IV hairpin, the “differentiation coefficient (IRES)” value is 1.0. In addition, the “Alpha-helical rate (%), second value of pair” value in series [1] was determined as 58%. The “Alpha-helical rate (%), first value of pair” value in series [1] is listed as 36%.

Regarding “LKKLLKLWKKLLKLAG [2r, tryptophan scanned second generation peptide]”, the Kd on RRE hairpin RNA is 0.037 µM; on TAR hairpin RNA it was 0.082 µM; on 16S ribosomal RNA A-site it was 0.065 µM; at IRES domain IV hairpin, 0.092 µM. Also, the “differentiation coefficient (IRES)” value in the series on IRES domain IV hairpin worked out at 0.75. Besides, the “Alpha-helical rate (%), second value of pair” value in series [1] is 59%. For the same substance, the “Alpha-helical rate (%), first value of pair” value in series [1] is recorded as 14%.

“LKKLLKWLKKLLDapLAG (LKKLLKWLKKLL[Dap]LAG-NH2; N-terminus assumed; SMILES CC(C)C[C@H](NC(=O)[C@H](CN)NC(=O)[C@H](CC(C)C)NC(=O)[C@H](CC(C)C)NC(=O)[C@H](CCCCN)NC(=O)[C@H](CCCCN)NC(=O)[C@H](CC(C)C)NC(=O)[C@H](Cc1c[nH]c2ccccc12)NC(=O)[C@H](CCCCN)NC(=O)[C@H](CC(C)C)NC(=O)[C@H](CC(C)C)NC(=O)[C@H](CCCCN)NC(=O)[C@H](CCCCN)NC(=O)[C@@H](N)CC(C)C)C(=O)N[C@@H](C)C(=O)NCC(N)=O) [3c, third generation peptide, both faces modified]”: the Kd worked out at 0.0097 µM at RRE hairpin RNA, 0.0083 µM on TAR hairpin RNA, 0.021 µM at 16S ribosomal RNA A-site and 0.00075 µM at IRES domain IV hairpin. Besides, the “differentiation coefficient (IRES)” value in the series with IRES domain IV hairpin was 17. For the same substance, the “Alpha-helical rate (%), second value of pair” value in series [1] was found to be 36%. Further, the “Alpha-helical rate (%), first value of pair” value in series [1] came to 29%.
